The values below come from EP4512806A1, “MOLECULAR GLUE DEGRADERS AND USES THEREOF” (Mablink Bioscience, priority 2023, dated 2025).

In one data set the test system is BT-474. The data set can be described thus: In vitro cytotoxicity assay (MTT). Conditions: 6 days incubation. The format is cell-based, human. From the text:
(§1) Human cancer cell lines used in the present project were purchased from either the American Type Culture Collection (ATCC), The Leibniz Institute DSMZ German Collection of Microorganisms and Cell Cultures GmbH (DSMZ) or the European Collection of Authenticated Cell Cultures (ECACC). For use in experiments, cells were cultivated following good and established cell culture practices, following instructions from the original ATCC/DSMZ/ECACC supplier for cell culture media & supplement, cryopreservation, and subculturing procedures. Cells were incubated under a 5% CO2 atmosphere at 37°C for no longer than 2 months.
(§2) In vitro cytotoxicity of compounds of the disclosure was assessed on several cancerous human cell lines. Cells were plated in 96-well plates at an appropriate density depending on the cell line (between 1000 and 10 000 cells/well in 100µL of appropriate culture media) and incubated at 37°C for 24 hours. Serial dilutions of the tested compound previously dissolved in culture media (50µL) were added, and incubation was carried at 37°C out for 6 days. MTT (5mg/mL in PBS, 20µL, Sigma-Aldrich) was added into the wells, and incubation was continued for 1 to 4 hours at 37°C. Culture media was then carefully removed, and well content was homogeneously dissolved with acidified isopropanol. Absorbance values were measured on a microplate reader using a wavelength of 570 nm (with a reference wavelength of 690 nm). The IC50 concentration values compared to untreated control cells were determined using inhibition dose response curve fitting (GraphPad Prism 9). Exatecan mesylate (cat#HY-13631A) and CR8 (CAS# 294646-77-8; cat#HY-18340) were purchased from MedChemExpress (China).

Another data set concerns MDA-MB-231. The data set can be described thus: In vitro cytotoxicity assay (MTT). The settings on record: 6 days incubation. Format: cell-based, human.
Text: as §1, §2

Another data set has as its system MDA-MB-453. The data set can be described thus: In vitro cytotoxicity assay (MTT). The settings on record: 6 days incubation. The format is cell-based, human.
Text: as §1, §2

Another data set relates to NCI-N87. The data set can be described thus: In vitro cytotoxicity assay (MTT). Format: cell-based, human. The settings on record: 6 days incubation.
Text: as §1, §2

The next data set concerns SKBR-3. Description: In vitro cytotoxicity assay (MTT). The format is cell-based, human. Conditions: 6 days incubation.
Text: as §1, §2

Data set [1] in a line: In vivo mice tolerability assessment. The settings on record: female CD-1 mice, single intravenous 1mg/kg dose, Mean. How it is done:
All animal procedures were performed in accordance with the European Union directive 86/609/EEC. Experiments were performed under individual permit and in accredited animal care facilities.
Mouse tolerability experiments were performed with selected compounds of the disclosure. Female CD-1 mice (n=5 mice per group) were treated with a single intravenous 1mg/kg dose of compound. Vehicle was PBS pH 6.0. Mice were carefully monitored for mortality, external clinical findings, weight loss, behavior and apparent signs of toxicity over the course of 21 days.

A further data set concerns the target T1, MDR1 (Homo sapiens, UniProt P08183).
T1 construct: host or cells: MDCK-MDR1
Description: MDR1 efflux substrate assay (MDCK-MDR1). The format is in vitro ADME. Conditions: MDCK-MDR1, 5µM, 60 min, in words. The method, then: (§3) MDR1 and BCRP efflux substrate assays were conducted in MDCK-MDR1 and MDCK-BCRP in vitro models (Preadyport™, Solvo Biotech) at Symeres (Nederland). Compound of the invention (donor well concentration of 5µM) were incubated in cell monolayer 24-transwell Preadyport system, using Preadyport recommended pH 7.4 assay buffer (donor and receiver wells). After 60 min of incubation (no shaking), samples are collected and suspended into triple volume of 66% cold acetonitrile. Samples are stored at -20°C until thawed, centrifuged and analyzed by LC-MS. Quinidine was used a positive control for the MDR1 assay, and prazosin was used as a positive control for the BCRP assay. Exatecan was used as a control, known not to be an MDR1 substrate. Residual DMSO content from compounds stock solutions was below 1% (v/v). The assay was performed in duplicate. The quantification of test compounds in donor or receptor compartment is conducted using relative LC/MS peak areas (samples of initial incubation solutions are used as a single point calibrator), without any spiked standard samples. The data is used for estimating apparent permeability (Papp) and calculation of efflux ratio.
MDR1 is protein of the tumor cell membrane that pumps the anticancer drugs out of cancer cells, thereby rendering the cell drug-resistant. The Papp (10^-6 cm/s) B (acceptor = basolateral) to A (donor = apical) reflects the susceptibility of a compounds to be pumped out of a tumor and as such a low Papp B→A value is advantageous in the context of oncology. The efflux ratio B/A reflects the overall ability of a compounds to enter MDR1-expressing tumor cells (equilibrium between ability to passively enter the cell A→B and susceptibility to be pumped out of a tumor B→A).

For a further data set, the target named is T2, BCRP (Homo sapiens, UniProt Q9UNQ0).
T2 construct: host or cells: MDCK-BCRP
T2 sequence (Q9UNQ0 1-655): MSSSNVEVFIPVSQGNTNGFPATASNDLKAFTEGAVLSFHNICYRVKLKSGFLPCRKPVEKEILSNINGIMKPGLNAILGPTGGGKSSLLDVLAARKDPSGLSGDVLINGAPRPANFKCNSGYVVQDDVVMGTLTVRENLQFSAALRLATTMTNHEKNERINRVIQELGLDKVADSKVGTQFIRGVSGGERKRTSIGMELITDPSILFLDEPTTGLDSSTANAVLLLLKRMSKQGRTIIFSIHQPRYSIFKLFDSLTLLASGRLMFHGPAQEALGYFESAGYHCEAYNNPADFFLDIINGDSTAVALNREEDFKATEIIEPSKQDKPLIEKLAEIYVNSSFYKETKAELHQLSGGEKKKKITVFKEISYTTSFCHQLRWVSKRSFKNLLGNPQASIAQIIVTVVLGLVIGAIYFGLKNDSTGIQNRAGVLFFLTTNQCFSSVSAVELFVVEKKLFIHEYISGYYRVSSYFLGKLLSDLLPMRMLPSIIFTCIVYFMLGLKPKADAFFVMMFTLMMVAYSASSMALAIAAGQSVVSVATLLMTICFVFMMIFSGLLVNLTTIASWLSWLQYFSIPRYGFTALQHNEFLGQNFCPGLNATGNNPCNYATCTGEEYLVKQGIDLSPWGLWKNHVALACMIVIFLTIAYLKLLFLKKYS
The data set can be described thus: BCRP efflux substrate assay (MDCK-BCRP). Format: in vitro ADME. The settings on record: 5µM, 60 min, in words. The method, then:
as §3
BCRP, like MDR1, is a protein of the tumor cell membrane that pumps the anticancer drugs out of cancer cells, thereby rendering the cell drug-resistant. This multidrug-resistant protein is particularly expressed in breast and lung cancers. The efflux ratio B/A reflects the overall ability of a compounds to enter BCRP-expressing tumor cells (equilibrium between ability to passively enter the cell A→B and susceptibility to be pumped out of a tumor B→A).

A short description of data set [2]: Passive permeability assessment (PAMPA assay). The settings on record: in words. Format: in vitro ADME. (In general: The PAMPA barrier holds no transporters, so it reflects passive diffusion.)
Description: Stock solutions of compounds of the invention were prepared in dimethyl sulfoxide (DMSO) to a final concentration of 10 mM. Each stock solution was diluted to 50 µM in pH 7.4 Prisma HT buffer (pION) in the presence of 10% MeOH (v/v). 200 µL were added to each well of the donor plate in quintuplicate. […] The acceptor filter plate was carefully placed on top of the donor plate to form a "sandwich." The sandwich was incubated at 25°C for 5 h, at 300 rpm. UV-vis spectra of the solutions in the blank, reference, acceptor, and donor plates were measured using a Tecan Infinite 200 PRO M Nano Plus microplate reader. For each compound, apparent permeability values Papp (10^-6 cm/s) were calculated using the PAMPA Explorer software v.3.6 (pION).
The next data set deals with JIMT-1. The data set can be described thus: In vitro cytotoxicity assay (MTT). Format: cell-based, human. Conditions: 6 days incubation.
Text: as §1, §2

A further data set has as its target T3, CycK (Homo sapiens, UniProt O75909).
T3 construct: endogenous in cells; host or cells: JIMT-1
Description: CycK protein quantification by Western Blot in JIMT-1 cells. Conditions: 2h. The format is cell-based. How it is done:
1×10^6 JIMT-1 cells were plated in 3mL of DMEM/FBS 90:10 (v/v) in 6-well plates and incubated overnight. Cells were treated with the compound 2384 of the invention with or without the proteasome inhibitor MG-132 (MedChemExpress, Cat HY-13259) for 2h. Cells were harvested, and protein were extracted using complete RIPA buffer (RIPA buffer, 1 mM DTT, 1M NaF, 100 mM sodium orthovanadate, phosphatase inhibitor buffer and protease inhibitors) for 1 hour on ice. Lysate were centrifuged 15min at 12 000g at 4°C. and proteins were mixed with 4x Laemmli Sample Buffer (Bio-Rad), heated at 95 °C for 5 mins and separated by SDS PAGE (PROTEAN TGX Stain-Free Gels, Bio-Rad). Proteins were then transferred onto PVDF membrane (iBlot®2 PVDF stacks, Invitrogen) using the iBlot2 device (Invitrogen) and blocked with TBS buffer (Intercept® Blocking Buffer, LI-COR Biosciences). Primary antibodies were incubated overnight at 4°C and secondary antibodies (IRDye Infrared Dyes from LI-COR Biosciences) 1 hour at room temperature. Used primary antibody were: anti-CycK (cat#A301-939A, Bethyl Laboratories, dil. 1:1000) and anti-β-actin (cat#A5441, Sigma-Aldrich, dil. 1:5000). Membranes were scanned using a c500 Imaging System (Azure Biosystems) and densitometric quantification were performed using imaged software. Protein levels were normalized against β-actin.
(In general: A western blot detects proteins with antibodies after separation by electrophoresis.)

Peptide text beside a SMILES is read from it. * marks the point of attachment. Cbz = O=C(OCc1ccccc1)*

T1 sequence (P08183 whole entry): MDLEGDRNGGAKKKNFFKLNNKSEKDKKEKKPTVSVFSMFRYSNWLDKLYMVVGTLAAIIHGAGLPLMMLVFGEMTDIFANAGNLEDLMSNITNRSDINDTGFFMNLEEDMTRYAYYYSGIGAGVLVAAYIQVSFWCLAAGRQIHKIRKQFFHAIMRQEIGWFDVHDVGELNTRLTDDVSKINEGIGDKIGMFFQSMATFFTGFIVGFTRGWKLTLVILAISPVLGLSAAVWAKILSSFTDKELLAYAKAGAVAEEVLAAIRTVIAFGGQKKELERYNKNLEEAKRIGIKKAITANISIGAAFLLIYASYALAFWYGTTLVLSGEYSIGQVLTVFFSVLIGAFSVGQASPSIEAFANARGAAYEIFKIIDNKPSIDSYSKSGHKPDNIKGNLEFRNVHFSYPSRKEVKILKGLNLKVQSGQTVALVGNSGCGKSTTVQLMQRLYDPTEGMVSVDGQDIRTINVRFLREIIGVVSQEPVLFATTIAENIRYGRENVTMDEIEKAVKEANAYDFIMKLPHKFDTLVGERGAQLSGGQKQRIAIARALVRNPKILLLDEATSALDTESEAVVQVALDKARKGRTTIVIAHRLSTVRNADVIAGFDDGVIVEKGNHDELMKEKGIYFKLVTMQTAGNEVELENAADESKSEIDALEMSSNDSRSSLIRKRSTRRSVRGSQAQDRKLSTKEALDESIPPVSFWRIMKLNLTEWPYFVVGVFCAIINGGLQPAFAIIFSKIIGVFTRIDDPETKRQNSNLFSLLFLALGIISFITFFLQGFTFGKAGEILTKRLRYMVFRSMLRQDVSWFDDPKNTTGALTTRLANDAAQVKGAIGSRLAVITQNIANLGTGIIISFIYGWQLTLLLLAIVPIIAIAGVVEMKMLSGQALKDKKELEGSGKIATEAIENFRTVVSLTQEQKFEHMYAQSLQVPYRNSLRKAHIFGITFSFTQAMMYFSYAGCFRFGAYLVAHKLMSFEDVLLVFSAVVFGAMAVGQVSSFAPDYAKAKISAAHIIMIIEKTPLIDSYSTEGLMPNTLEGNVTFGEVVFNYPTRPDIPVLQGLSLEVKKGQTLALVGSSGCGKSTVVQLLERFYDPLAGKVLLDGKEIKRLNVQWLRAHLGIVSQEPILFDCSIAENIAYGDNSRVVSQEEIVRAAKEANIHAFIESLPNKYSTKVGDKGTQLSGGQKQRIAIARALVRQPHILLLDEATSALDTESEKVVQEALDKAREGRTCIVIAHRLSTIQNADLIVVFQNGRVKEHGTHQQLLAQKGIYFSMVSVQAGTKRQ
T3 sequence (O75909 whole entry): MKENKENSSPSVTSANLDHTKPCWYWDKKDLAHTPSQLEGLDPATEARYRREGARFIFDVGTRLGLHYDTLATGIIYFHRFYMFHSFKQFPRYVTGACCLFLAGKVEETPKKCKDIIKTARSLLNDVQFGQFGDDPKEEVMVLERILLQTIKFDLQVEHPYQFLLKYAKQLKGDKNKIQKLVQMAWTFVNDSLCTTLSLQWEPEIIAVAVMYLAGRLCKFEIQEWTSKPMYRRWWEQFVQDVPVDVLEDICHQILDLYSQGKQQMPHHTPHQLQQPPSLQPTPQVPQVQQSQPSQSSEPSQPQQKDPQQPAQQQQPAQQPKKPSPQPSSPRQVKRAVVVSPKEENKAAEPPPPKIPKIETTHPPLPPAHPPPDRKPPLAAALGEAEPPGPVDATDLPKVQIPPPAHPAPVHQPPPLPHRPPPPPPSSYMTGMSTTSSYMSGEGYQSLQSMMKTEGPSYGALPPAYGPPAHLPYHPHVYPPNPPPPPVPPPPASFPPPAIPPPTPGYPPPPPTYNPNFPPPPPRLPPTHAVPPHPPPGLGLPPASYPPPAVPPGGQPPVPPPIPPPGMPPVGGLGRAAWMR
T3 sequence (Q9NYV4 whole entry partner): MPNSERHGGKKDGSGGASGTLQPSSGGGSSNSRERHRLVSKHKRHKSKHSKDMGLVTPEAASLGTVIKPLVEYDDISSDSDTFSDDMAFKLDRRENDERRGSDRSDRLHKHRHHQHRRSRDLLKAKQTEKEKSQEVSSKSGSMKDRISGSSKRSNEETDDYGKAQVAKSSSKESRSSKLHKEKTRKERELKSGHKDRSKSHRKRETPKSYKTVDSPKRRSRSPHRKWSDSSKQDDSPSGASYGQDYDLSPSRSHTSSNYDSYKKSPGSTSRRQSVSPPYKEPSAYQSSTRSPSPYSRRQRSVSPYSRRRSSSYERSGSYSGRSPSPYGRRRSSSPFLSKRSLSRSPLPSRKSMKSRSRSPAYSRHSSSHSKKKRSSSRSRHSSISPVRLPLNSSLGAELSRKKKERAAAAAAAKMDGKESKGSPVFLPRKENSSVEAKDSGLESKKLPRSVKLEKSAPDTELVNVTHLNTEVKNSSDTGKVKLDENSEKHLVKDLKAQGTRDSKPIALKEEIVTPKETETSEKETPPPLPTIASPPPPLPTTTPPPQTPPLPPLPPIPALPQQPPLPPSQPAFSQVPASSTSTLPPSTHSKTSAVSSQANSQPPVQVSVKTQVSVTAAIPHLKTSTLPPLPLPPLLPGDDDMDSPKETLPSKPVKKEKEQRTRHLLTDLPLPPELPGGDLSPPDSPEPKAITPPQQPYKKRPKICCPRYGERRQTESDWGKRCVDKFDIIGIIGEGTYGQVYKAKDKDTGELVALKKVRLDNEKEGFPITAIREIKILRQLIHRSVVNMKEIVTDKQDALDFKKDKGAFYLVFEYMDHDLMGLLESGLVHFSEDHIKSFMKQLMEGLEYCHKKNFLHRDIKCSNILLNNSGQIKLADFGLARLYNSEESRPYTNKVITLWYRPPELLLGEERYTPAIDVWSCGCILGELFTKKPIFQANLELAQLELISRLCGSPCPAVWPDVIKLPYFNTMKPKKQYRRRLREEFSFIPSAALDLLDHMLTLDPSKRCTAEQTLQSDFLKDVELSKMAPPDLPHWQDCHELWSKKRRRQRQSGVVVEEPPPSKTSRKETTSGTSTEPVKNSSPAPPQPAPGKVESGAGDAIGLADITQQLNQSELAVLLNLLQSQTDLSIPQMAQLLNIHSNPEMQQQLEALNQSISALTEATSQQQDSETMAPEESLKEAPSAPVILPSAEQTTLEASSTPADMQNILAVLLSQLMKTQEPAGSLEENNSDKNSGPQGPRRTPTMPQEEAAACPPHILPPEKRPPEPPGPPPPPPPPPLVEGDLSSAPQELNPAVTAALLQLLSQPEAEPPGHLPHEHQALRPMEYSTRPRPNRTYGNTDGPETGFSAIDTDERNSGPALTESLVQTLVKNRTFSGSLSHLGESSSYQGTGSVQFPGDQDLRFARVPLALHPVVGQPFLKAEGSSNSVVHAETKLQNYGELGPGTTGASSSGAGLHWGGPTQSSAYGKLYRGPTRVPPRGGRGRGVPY
T3 sequence (Q16531 whole entry partner): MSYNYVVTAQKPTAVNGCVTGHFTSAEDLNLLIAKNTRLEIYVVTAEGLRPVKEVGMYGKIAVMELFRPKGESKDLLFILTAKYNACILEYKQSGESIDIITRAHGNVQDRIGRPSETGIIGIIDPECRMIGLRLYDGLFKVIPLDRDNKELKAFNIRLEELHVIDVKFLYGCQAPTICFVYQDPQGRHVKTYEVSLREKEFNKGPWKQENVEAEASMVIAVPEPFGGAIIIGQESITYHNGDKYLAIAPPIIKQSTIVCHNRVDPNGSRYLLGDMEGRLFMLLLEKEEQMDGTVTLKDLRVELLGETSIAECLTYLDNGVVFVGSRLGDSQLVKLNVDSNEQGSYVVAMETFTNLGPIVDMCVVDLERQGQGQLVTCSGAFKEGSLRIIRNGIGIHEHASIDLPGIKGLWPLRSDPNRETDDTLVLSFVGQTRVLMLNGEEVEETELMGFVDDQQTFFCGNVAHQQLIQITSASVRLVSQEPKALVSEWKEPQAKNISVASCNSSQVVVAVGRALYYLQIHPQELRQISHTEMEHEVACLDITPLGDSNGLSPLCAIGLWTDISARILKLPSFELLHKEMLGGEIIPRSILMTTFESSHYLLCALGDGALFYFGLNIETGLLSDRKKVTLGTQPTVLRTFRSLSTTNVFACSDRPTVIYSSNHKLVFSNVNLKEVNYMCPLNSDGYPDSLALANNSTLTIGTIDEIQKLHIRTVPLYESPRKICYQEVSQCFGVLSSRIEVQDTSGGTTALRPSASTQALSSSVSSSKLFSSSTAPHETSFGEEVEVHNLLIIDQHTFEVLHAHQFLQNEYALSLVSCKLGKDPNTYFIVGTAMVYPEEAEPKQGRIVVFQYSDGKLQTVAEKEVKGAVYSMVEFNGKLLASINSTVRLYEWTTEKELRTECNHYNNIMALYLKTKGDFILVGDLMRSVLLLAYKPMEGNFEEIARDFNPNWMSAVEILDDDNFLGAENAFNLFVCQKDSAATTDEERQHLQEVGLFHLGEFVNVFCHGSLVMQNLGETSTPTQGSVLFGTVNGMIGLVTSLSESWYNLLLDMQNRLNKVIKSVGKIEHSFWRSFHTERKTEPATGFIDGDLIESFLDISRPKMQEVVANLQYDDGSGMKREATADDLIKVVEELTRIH

`Brc1cnn2c(NCc3ccc(-c4ccccn4)cc3)nc(N[C@H]3CCNC3)nc12` [Compound 2657]: the IC50 in the data set on BT-474 is 1.71 nM; with MDA-MB-231, 0.56 nM; with MDA-MB-453 it was 0.77 nM; with NCI-N87, 0.43 nM; in the data set on SKBR-3, 0.13 nM. The “average weight change (% initial weight)” value in data set [1] (Study Day 1) is reported as 0.0 % initial weight; in [1] (Study Day 2), 1.3 % initial weight; in data set [1] (Study Day 3) it was 1.5 % initial weight; in [1] (Study Day 4) it was 1.7 % initial weight; in [1] (Study Day 5) it was 2.3 % initial weight; in data set [1] (Study Day 6) it was 4.2 % initial weight. The “average weight change (% initial weight)” value in [1] (Study Day 7) turned out to be 3.3 % initial weight; in data set [1] (Study Day 8), 4.2 % initial weight; in [1] (Study Day 9), 4.5 % initial weight; in [1] (Study Day 10) it was 7.8 % initial weight; in data set [1] (Study Day 11), 7.7 % initial weight; in data set [1] (Study Day 12), 8.0 % initial weight. The “average weight change (% initial weight)” value was determined as 7.9 % initial weight in data set [1] (Study Day 13); 8.0 % initial weight in data set [1] (Study Day 14); 7.9 % initial weight in data set [1] (Study Day 15); 9.4 % initial weight in data set [1] (Study Day 16); 9.3 % initial weight in data set [1] (Study Day 17); 9.8 % initial weight in data set [1] (Study Day 18). The figures for the “average weight change (% initial weight)” value in data set [1] (Study Day 19), in data set [1] (Study Day 20) and in [1] (Study Day 21) were 10.5 % initial weight, 11.4 % initial weight and 12.0 % initial weight, respectively.
For `N[C@H]1CCN(c2nc(NCc3ccc(-c4ccccn4)cc3)n3ncc(Br)c3n2)C1` [Compound 2655], the MDR1 efflux potential result at MDR1 is recorded as “low level”. The BCRP efflux potential entry on BCRP is listed as “low level”.
Consider `NC[C@H]1CC[C@H](Nc2nc(NCc3ccc(-c4ccccn4)cc3)n3ncc(Br)c3n2)CC1` [Compound 2636], for which the passive permeability potential result in [2] was “moderate”.
Consider `Brc1cnn2c(Nc3ccc(CN4CCOCC4)cc3)nc(NC3CCNCC3)nc12` [Compound 2554], for which the IC50 in the data set on BT-474, in the data set on JIMT-1, in the data set with MDA-MB-231, in the data set on MDA-MB-453, with NCI-N87 and with SKBR-3 was > 100 nM each time.
As to `CN(CCN)c1nc(NCc2ccc(-c3ccccn3)cc2)n2ncc(Br)c2n1` [Compound 2600], at MDR1, the MDR1 efflux potential result is reported as “low level”. The BCRP efflux potential entry on BCRP is on record as “low level”.
For `N[C@H]1CCCC[C@@H]1Nc1nc(NCc2ccc(-c3ccccn3)cc2)n2ncc(Br)c2n1` [Compound 2671], in data set [2], the passive permeability potential entry was “high”.
Regarding `CN(C)C/C=C/C(=O)Nc1ccc(C(=O)N2CCC[C@@H](Nc3ncc(Cl)c(-c4c[nH]c5ccccc45)n3)C2)cc1` [THZ-531, reference compound], the CycK protein content entry on CycK (1µM final concentration) is given as “no impact”.
Consider `NCCCCNc1nc(NCc2ccc(-c3ccccn3)cc2)n2ncc(Br)c2n1` [Compound 2585], for which the passive permeability potential result in data set [2] is recorded as “none”.
`CNCCN(C)c1nc(NCc2ccc(-c3ccccn3)cc2)n2ncc(Br)c2n1` [Compound 2605]: on MDR1, the MDR1 efflux potential entry is listed as “low level”. Further, the BCRP efflux potential entry at BCRP is listed as “low level”.
On to `CC(C)C[C@@H](C=O)NC(=O)[C@H](CC(C)C)NC(=O)[C@H](CC(C)C)NC(=O)OCc1ccccc1` [MG-132, reference compound] (Cbz-Leu-Leu-Leu-aldehyde), for which the “CycK protein content in combination with proteasome inhibitor” value at CycK (degrader combined with MG-132) was “restored the content in cycK protein”.

Broadly, the IC50 is the concentration needed to halve the response being measured. Read a low IC50 as higher potency.
